Test results taken from article PMC9841532, “Exploring the Effect of Halogenation in a Series of Potent and Selective A2B Adenosine Receptor Antagonists” (Journal of Medicinal Chemistry, 2022).

Key:
[1] = molecular target: T1, A2BAR (Homo sapiens, UniProt P29275); experiment: Cellular impedance label-free assay (xCELLigence) in A2BAR-SNAP cells; assay type: cell-based; details: compound 1 μM, NECA 1 μM, 45 min, n = 4
T1 construct: expressed in transfected cells; host or cells: HEK-293 T cells permanently expressing pRK5-A2BAR^SNAP
T1 sequence (P29275 1-332): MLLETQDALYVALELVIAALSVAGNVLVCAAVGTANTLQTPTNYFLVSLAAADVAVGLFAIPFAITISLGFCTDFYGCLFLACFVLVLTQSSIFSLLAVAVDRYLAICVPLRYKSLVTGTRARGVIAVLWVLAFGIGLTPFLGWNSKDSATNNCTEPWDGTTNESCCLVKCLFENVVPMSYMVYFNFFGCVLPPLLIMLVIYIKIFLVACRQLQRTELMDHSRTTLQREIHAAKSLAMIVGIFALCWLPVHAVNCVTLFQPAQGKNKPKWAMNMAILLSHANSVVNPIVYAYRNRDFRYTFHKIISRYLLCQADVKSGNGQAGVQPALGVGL
Source text: To further evaluate the ability of 16b, 16j, 16r, and 16s to preclude A2BAR function in living cells, we took advantage of the cellular impedance label-free method, a widely accepted morphological and functional biosensor of cell status.[39] Accordingly, whole-cell NECA-mediated impedance responses of A2BAR^SNAP cells were monitored in real time in the absence or presence of 16b, 16j, 16r, and 16s.
Figure 4 Blockade of A2BAR-mediated whole-cell label-free responses. (A) Representative example of the impedance signal obtained over the time upon incubation with A2BAR ligands. […] (B) The area under the curve (AUC) derived from the normalized cell index (NCI) shown in (A) was calculated for each condition. Data are expressed as mean ± SEM (n = 4). ***P < 0.001 and **P < 0.01, one-way ANOVA with a Dunnett’s multiple-comparison test when compared to vehicle (Veh).
The xCELLigence RTCA system (Roche) was employed to assess the impact of blocking A2BAR-mediated effects in cellular impedance upon receptor activation, as previously described.[57]−[60] To this end, A2BAR^SNAP cells were growth in 16-well E-plates (Roche), using DMEM supplemented with 1 mM sodium pyruvate, 2 mM L-glutamine, 100 U/mL streptomycin, […] penicillin, and 1.5% (v/v) fetal bovine serum in the presence of 0.5 U/mL of ADA. Of note, wells were previously coated with 50 μL fibronectin (10 μg/mL; Sigma-Aldrich) and the background index for each well was determined with supplemented DMEM (90 μL) in the absence of cells. Subsequently, A2BAR^SNAP cells (90 μL) were plated at a cell density of 10,000 cells/well and grown for 18 h in the RTCA SP device station (Roche) at 37 °C in an atmosphere of 5% CO2. Then, before ligand addition, cell index values were normalized to the same time point using the RTCA software, providing the normalized cell index (NCI). After ligand stimulation, NCI was recorded every 15 s for a total time of at least 45 min. The area under the curve (AUC) for every condition was calculated using GraphPad Prism 9.

[2] = molecular target: T2, hA1AR (Homo sapiens, UniProt P30542); experiment: Radioligand binding competition, [3H]DPCPX, membranes from CHO-A1 cells; details: 1 μM, [3H]DPCPX, human CHO cells, n = 2
T2 sequence (P30542 1-326): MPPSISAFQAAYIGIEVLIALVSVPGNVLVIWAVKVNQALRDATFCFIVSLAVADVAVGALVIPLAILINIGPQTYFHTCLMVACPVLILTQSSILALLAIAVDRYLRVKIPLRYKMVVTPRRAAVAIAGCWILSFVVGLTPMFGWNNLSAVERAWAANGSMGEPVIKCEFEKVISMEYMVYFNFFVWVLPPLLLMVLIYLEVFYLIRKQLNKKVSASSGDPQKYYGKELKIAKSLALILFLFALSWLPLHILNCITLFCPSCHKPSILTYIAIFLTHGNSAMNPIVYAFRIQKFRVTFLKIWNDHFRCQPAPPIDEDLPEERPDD
Summary of the method: (§1)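 Racemates, plus selected enantiomers after chiral resolution, were tested at 25 °C, with a 60 min incubation for one subtype and 30 min for others. Non-specific binding was defined with 10 μM or 100 μM R-PIA. Bound radioactivity was counted after washing and filtration.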

[3] = molecular target: T1, A2BAR; experiment: cAMP accumulation assay in HEK-293 cells permanently expressing A2BAR-SNAP; assay type: cell-based; details: read-out: KB (hA2B)
Protocol: To assess their ability to block A2BAR agonist intrinsic activity, the effect on A2BAR-mediated cAMP accumulation and cellular impedance was evaluated. To this end, we used HEK-293 cells permanently expressing the A2BAR^SNAP construct, which can be visualized upon staining the cells with a SNAP-fluorescent substrate.
Scale bar: […]. […] Data are expressed as mean ± SEM (n = 4).
cAMP accumulation was measured using the LANCE Ultra cAMP kit (PerkinElmer, Waltham, Massachusetts, USA) as previously described.[55] […] The 384-well plate was incubated 1 h at 22 °C in the dark and was then read on a CLARIOstar Microplate Reader (BMG Labtech, Durham, North Carolina, USA). […] Data were fitted by non-linear regression using GraphPad Prism 9 (San Diego, California, USA).

[4] = molecular target: T3, hA2AAR (Homo sapiens, UniProt P29274); experiment: Radioligand binding competition, [3H]ZM241385, membranes from HeLa-A2A cells; details: 1 μM, [3H]ZM241385, human HeLa cells, n = 2
T3 construct: expressed in transfected cells; host or cells: HeLa (HeLa-A2A) cell membranes
T3 sequence (P29274 whole entry): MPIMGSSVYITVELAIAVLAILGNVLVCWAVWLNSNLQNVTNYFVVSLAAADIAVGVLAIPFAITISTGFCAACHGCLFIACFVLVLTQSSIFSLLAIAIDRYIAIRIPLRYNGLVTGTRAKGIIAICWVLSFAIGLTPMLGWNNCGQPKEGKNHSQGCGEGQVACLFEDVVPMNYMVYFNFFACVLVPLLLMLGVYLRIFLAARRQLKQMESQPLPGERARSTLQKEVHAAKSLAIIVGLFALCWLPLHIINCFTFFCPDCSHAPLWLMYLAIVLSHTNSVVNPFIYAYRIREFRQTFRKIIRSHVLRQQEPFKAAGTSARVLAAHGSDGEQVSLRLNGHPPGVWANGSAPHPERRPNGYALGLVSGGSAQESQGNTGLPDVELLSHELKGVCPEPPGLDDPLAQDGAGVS
Summary of the method: as §1

[5] = molecular target: T4, hA3AR (Homo sapiens, UniProt P0DMS8); experiment: Radioligand binding competition, [3H]NECA, membranes from HeLa-A3 cells; details: 1 μM, [3H]NECA, human HeLa cells, n = 2
T4 construct: expressed in transfected cells; host or cells: HeLa (HeLa-A3) cell membranes
T4 sequence (P0DMS8 1-318): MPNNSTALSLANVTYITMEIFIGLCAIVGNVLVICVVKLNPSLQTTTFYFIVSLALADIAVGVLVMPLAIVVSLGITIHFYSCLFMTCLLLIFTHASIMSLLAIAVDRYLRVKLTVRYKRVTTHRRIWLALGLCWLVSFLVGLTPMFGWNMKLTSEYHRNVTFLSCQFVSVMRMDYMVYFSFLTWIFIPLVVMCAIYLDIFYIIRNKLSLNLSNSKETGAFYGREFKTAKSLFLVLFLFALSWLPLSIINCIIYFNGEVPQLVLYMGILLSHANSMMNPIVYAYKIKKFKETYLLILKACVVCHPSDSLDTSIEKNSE
Summary of the method: as §1

Blockade of NECA-induced changes in cellular impedance (AUC of normalized cell index) [1] | % at 1 μM hA1 (percentage displacement of specific binding) [2] [%] | Kb [3] [nM] | % at 1 μM hA2A (percentage displacement of specific binding) [4] [%] | % at 1 μM hA3 (percentage displacement of specific binding) [5] [%] | SMILES
significantly blocked | 11 | 0.8 ± 0.2 | 2 | 3 | CC1=C(C(=O)OC(C)C)C(c2ccco2)n2c(nc3cc(F)ccc32)N1 (stereo not drawn) [16b]
significantly blocked | 35 | 0.6 ± 0.2 | 24 | 2 | CC1=C(C(=O)OC(C)C)C(c2ccco2)n2c(nc3cc(Cl)ccc32)N1 (stereo not drawn) [16j]
significantly blocked | 25 | 1.7 ± 0.6 | 2 | 10 | CC1=C(C(=O)OC(C)C)C(c2ccco2)n2c(nc3cc(Br)ccc32)N1 (stereo not drawn) [16r]
